Source: patent publication US20160102074A1, “SUBSTITUTED AMIDE COMPOUNDS” (PFIZER INC., priority 2014, published 2016)

Assays:
PCSK9 = PCSK9 lowering in sandwich culture human hepatocytes (SCHH); type: cell-based; settings: sandwich culture primary cryopreserved human hepatocytes, secreted PCSK9 by AlphaLISA
Method: PCSK9 Lowering and Compound Concentration Determination in Sandwich Culture Human Hepatocytes (SCHH)
Test compound in-vitro pharmacokinetic and pharmacodynamic relationships were measured in sandwich culture primary cryopreserved human hepatocytes. Within these studies SCHH cells (BD Biosciences IVT) were thawed at 37° C. then placed on ice, after which the cells were added to pre-warmed (37° C.) In VitroGRO-HT media and centrifuged at 50×g for 3 min. The cell pellet was re-suspended to 0.8×10^6 cells/mL in InVitroGRO-CP plating medium and cell viability determined by trypan blue exclusion. On day 1, hepatocyte suspensions were plated in BioCoat 96-well plates at a density of 80000 cells/well in a volume of 0.1 mL/well. After 18 to 24 hours of incubation at 37° C. in 5% CO2, cells were overlaid with ice-cold 0.25 mg/mL BD Matrigel Matrix Phenol Red-Free in incubation medium at 0.1 mL/well. Cultures were maintained at 37° C. in 5% CO2 in InVitroGRO-HI (FBS-free media), which was replaced every 24 hours and time course treatments were initiated on day 5. […] Percent PCSK9 lowering versus vehicle treated cells was then determined for each time point and the maximum response (and the corresponding concentration and time when observed) is reported under the Sandwich Culture Hepatocyte (SCHH) PCSK9 lowering summarized in Table 3. […]

human PCSK9 = test: In vivo plasma PCSK9 lowering in humanized PCSK9 mice; set-up: species or system mouse; settings: hPCSK9 mice, single oral dose 500 mg/kg, relative to hour zero (baseline) levels
Text: A humanized PCSK9 mouse model was developed to assess compound activity in vivo. This model was established by first generating a transgenic mouse containing the full-length human PCSK9 gene and its promoter through pronuclear injection of the bacterial artificial chromosome (BAC), RP11-627J9, into C57B16J mice. Mice containing the human PCSK9 transgene were then bred with PCSK9 knockout mice on a 129/C57BL6J background (Rashid S, Curtis D E, Garuti R, et al. Decreased plasma cholesterol and hypersensitivity to statins in mice lacking Pcsk9. Proc Natl Acad Sci USA 2005; 102(15):5374-9). […] For example, ethyl (S)-1-{5-[4-(4-{(3-chloropyridin-2-yl)[(3R)-piperidin-3-yl]carbamoyl}-2-fluorophenyl)-1-methyl-1H-pyrazol-5-yl]-1H-tetrazol-1-yl}ethyl carbonate (the parent molecule) was dosed orally and plasma and liver concentrations were measured for the metabolite, N-(3-chloropyridin-2-yl)-3-fluoro-4-[1-methyl-5-(2H-tetrazol-5-yl)-1H-pyrazol-4-yl]-N-[(3R)-piperidin-3-yl]benzamide. Quantitation of human plasma PCSK9 was performed using a commercially available sandwich ELISA kit (R&D Systems, DPC900) incorporating a horse radish peroxidase (HRP) conjugated secondary antibody (R&D Systems, DPC900) to generate a colorimetric signal proportional to PCSK9 concentration per the manufacturer's protocol. […]

Row | SMILES | IC50 (PCSK9) | Percent Plasma PCSK9 Lowering at 4 hours (human PCSK9)
1 | Cn1ncc(-c2ccc(C(=O)N(c3ncccc3Cl)[C@@H]3CCCNC3)cc2F)c1-c1nn[nH]n1 [Example 3, N-(3-chloropyridin-2-yl)-3-fluoro-4-[1-methyl-5-(2H-tetrazol-5-yl)-1H-pyrazol-4-yl]-N-[(3R)-piperidin-3-yl]benzamide] | 63.4 µM | 
2 | CCOC(=O)O[C@@H](C)n1nnnc1-c1c(-c2ccc(C(=O)N(c3ncccc3Cl)[C@@H]3CCCNC3)cc2)cnn1C [Example 6, ethyl (S)-1-{5-[1-methyl-4-(4-{(3-chloropyridin-2-yl)[(3R)-piperidin-3-yl]carbamoyl}phenyl)-1H-pyrazol-5-yl]-1H-tetrazol-1-yl}ethyl carbonate] |  | 71%
3 | CCOC(=O)O[C@@H](C)n1nnnc1-c1c(-c2ccc(C(=O)N(c3ncccc3Cl)[C@@H]3CCCNC3)cc2F)cnn1C [Example 7, ethyl (S)-1-{5-[4-(4-{(3-chloropyridin-2-yl)[(3R)-piperidin-3-yl]carbamoyl}-2-fluorophenyl)-1-methyl-1H-pyrazol-5-yl]-1H-tetrazol-1-yl}ethyl carbonate] |  | 72%
